In the NIST ThermoML archive (doi:10.1021/je060291c):
Values joined by “and” are separate entries in the source; they are usually repeats but may differ in a detail not shown here. Equal entries are not always repeated.

Assay: wn = mass fraction of the nth substance listed
Settings: Liquid, Pulse-echo method, w2 = 0.49

CC(F)(F)F [1,1,1-trifluoroethane] + FC(F)C(F)(F)F
speed of sound
Settings	288.18 K	298.19 K	308.19 K	318.2 K	328.17 K	338.18 K
1290 kPa	–	375.4 m/s	–	–	–	–
1300 kPa	–	375.4 m/s and 375.5 m/s	–	–	–	–
1360 kPa	–	376.9 m/s	–	–	–	–
1510 kPa	–	379.6 m/s	–	–	–	–
1630 kPa	–	381.8 m/s	–	–	–	–
1670 kPa	–	–	324.1 m/s and 324.2 m/s	–	–	–
1740 kPa	–	–	326 m/s	–	–	–
1750 kPa	–	384.2 m/s	–	–	–	–
1840 kPa	–	–	328.4 m/s	–	–	–
2010 kPa	440.2 m/s	388.7 m/s	332.4 m/s	–	–	–
2120 kPa	–	–	–	270.3 m/s	–	–
2180 kPa	–	–	–	272.6 m/s	–	–
2250 kPa	444 m/s	393 m/s	338 m/s	274.9 m/s	–	–
2360 kPa	–	–	–	278.2 m/s	–	–
2510 kPa	447.4 m/s	397.3 m/s	343.6 m/s	282.9 m/s	–	–
2660 kPa	–	–	–	–	211.8 m/s and 211.9 m/s	–
2750 kPa	450.9 m/s	401.5 m/s	348.9 m/s	290.4 m/s	216.9 m/s	–
2880 kPa	–	–	–	–	223.4 m/s	–
3010 kPa	454.3 m/s	405.6 m/s	354 m/s	297.5 m/s	229.4 m/s	–
3380 kPa	–	–	–	–	–	154.6 m/s
3440 kPa	–	–	–	–	–	160.1 m/s
3500 kPa	460.9 m/s	413.4 m/s	363.8 m/s	310.3 m/s	249.7 m/s	165.9 m/s
3660 kPa	–	–	–	–	–	178.1 m/s
3830 kPa	–	–	–	–	–	189 m/s
4000 kPa	467.5 m/s	421.1 m/s	373.1 m/s	322.1 m/s	266.3 m/s	199.1 m/s
4250 kPa	–	–	–	–	–	211.1 m/s
4500 kPa	473.5 m/s	428.4 m/s	381.8 m/s	333 m/s	280.9 m/s	221.8 m/s
5000 kPa	479.7 m/s	435.4 m/s	390.1 m/s	343.1 m/s	294 m/s	240.3 m/s
6010 kPa	491.5 m/s	448.7 m/s	405.6 m/s	361.7 m/s	316.6 m/s	269.8 m/s
7010 kPa	502.5 m/s	461.1 m/s	419.8 m/s	378.2 m/s	336.3 m/s	293.8 m/s
8000 kPa	513.1 m/s	473 m/s	433.3 m/s	393.4 m/s	353.7 m/s and 354 m/s and 353.9 m/s	314.4 m/s
9000 kPa	523.2 m/s	484.3 m/s	445.6 m/s	407.7 m/s	370 m/s	333 m/s
10000 kPa	532.9 m/s	494.9 m/s	457.5 m/s	420.9 m/s	384.7 m/s	349.3 m/s
12000 kPa	551.3 m/s	515.1 m/s	479.6 m/s	445 m/s	411.3 m/s	378.7 m/s
14000 kPa	568.6 m/s	533.7 m/s	499.8 m/s	466.9 m/s	435.1 m/s	404.3 m/s
16010 kPa	585 m/s	551.1 m/s	518.5 m/s	487 m/s	456.6 m/s	427.4 m/s
18000 kPa	600.2 m/s	567.6 m/s	536.1 m/s	505.5 m/s	476.5 m/s	448.3 m/s
20000 kPa	614.9 m/s	583.2 m/s	552.6 m/s	523 m/s	494.7 m/s	467.8 m/s
23000 kPa	635.8 m/s	605.1 m/s	575.7 m/s	547.4 m/s	520.4 m/s	494.6 m/s
26000 kPa	655.3 m/s	625.5 m/s	597.3 m/s	569.9 m/s	543.8 m/s	519 m/s
29010 kPa	673.8 m/s	645.1 m/s	617.4 m/s	591 m/s	565.9 m/s	541.7 m/s
32000 kPa	691.2 m/s	663.2 m/s	636.3 m/s	610.7 m/s	586.4 m/s	563 m/s
35000 kPa	708.3 m/s	680.8 m/s	654.6 m/s and 654.3 m/s	629.4 m/s	605.5 m/s and 605.8 m/s	583 m/s
40000 kPa	734.9 m/s	708.2 m/s	682.9 m/s	658.7 m/s	635.7 m/s	613.8 m/s
45000 kPa	759.7 m/s	734 m/s	709.3 m/s	685.8 m/s	663.5 m/s	642.4 m/s
50000 kPa	783.2 m/s	758 m/s	734 m/s	711.3 m/s	689.5 m/s	669 m/s
55000 kPa	805.1 m/s	780.7 m/s and 780.9 m/s	757.3 m/s and 757.1 m/s	734.9 m/s	714.1 m/s	693.9 m/s
60000 kPa	826.3 m/s	802.3 m/s and 802.4 m/s	779.5 m/s	757.7 m/s	737.1 m/s	717.2 m/s
65000 kPa	846.7 m/s	823.1 m/s	800.7 m/s	779.3 m/s	759 m/s	739.8 m/s

Settings	speed of sound [m/s]
298.19 K	375.4
308.19 K	324.2
318.2 K	270.3
328.17 K	211.8
